Where only a bound is given, the exact number is not on record here.

Broadly, the melting point is the temperature of the solid-liquid transition. The term IC50 denotes the midpoint of a concentration-inhibition curve.

For data set [1], the system named is Ramos cells / immobilized VCAM-1 (extracellular domains 1–3). The data set is described as follows: Adhesion of Ramos cells to immobilized VCAM-1 (domains 1–3). In kind it is cell-based. To be noted: Homo sapiens, 1 h. The text has this:
In Vitro Assay: Adhesion of Ramos Cells to Immobilized VCAM-1 (Domains 1–3) Preparation of VCAM-1 (extracellular domains 1–3)
Complementary DNA (cDNA) encoding 7-domain form of VCAM-1 (GenBank accession #M60335) was obtained using Rapid-ScreenTM cDNA library panels (OriGene Technologies, Inc) at Takara Gene Analysis Center (Shiga, Japan). The primers used were 5′-CCAAGGCAGAGTACGCAAAC-3′ (sense) and 5′-TGGCAGGTATTATTAAGGAG-3′ (antisense). PCR amplification of the 3-domain VCAM-1 cDNA was perform using Pfu DNA polymerase (Stratagene) with the following sets of primers: (U-VCAMd1–3) 5′-CCATATGGTACCTGATCAATTTAAAATCGAGACCACCCCAGAA-3′; (L-VCAMd1–3) 5′-CCATATAGCAATCCTAGGTCCAGGGGAGATCTCAACAGTAAA-3′. PCR cycle was 94° C. for 45 sec, 55° C. for 45 sec, 72° C. for 2 min, repeating 15 cycles. After the purification of the PCR product, the fragment was digested with KpnI-AvrII. The digested fragment was ligated into pBluescript IISK(-) (Strategene), which was linearized by digesting with KpnI-XhoI. The ligation was followed by transformation to a Dam/Dcm methylase-free E. coli strain SCS110 (Strategene) to create the donor plasmid pHH7. To direct VCAM-1 molecule into the insect cell secretory pathway, the VCAM-1 coding sequence was fused to signal peptide sequence of honeybee melittin. The resulting melittin-VCAM fusion was placed in correct orientation to the baculovirus polyhedrin promoter. Baculovirus transfer vector containing first 3-domain form VCAM-1 (pH10) was constructed by ligation of 0.9 kb fragment from AvrIIenow/BclI digests of pH7 into SalI/Klenow/BamHI digests of pMelBacB (Invitrogen). Recombinant baculovirus was generated by using Bac-N-Blue™ Transfection kit (Invitrogen) according to the manufacture's instruction. The recombinant virus was amplified by infection to High-Five™ insect cells for 5–6 days, and virus titer was determined by plaque assay.
High-Five™ insect cells were pelleted in a 225 ml conical tube by centrifugation at 1000 rpm for 5 min. After discarding the supernatant, the pellet was resuspended in 1.5×10^9 pfu (MOI=5) of high-titer virus solution, followed by incubation for 1.5 hours at room temperature. The cells were pelleted again and washed once in fresh Express Five™ serum free medium. The cells were pelleted again and finally, resuspended in 200 ml of fresh Express Five™ medium, transferred to a 1,000 ml shaker flask, and incubated in a shaker at 27° C., 130 rpm, for 48 hours before the culture supernatant was collected. […] Protein concentration was determined by using Coomassie protein assay reagent (Pierce) according to the manufacture's instruction. […]
Preparation of Fluorescence Labeled Ramos Cells: […]

`COc1ccc(C(CC(=O)Nc2ccc(NC(=O)Nc3ccccc3C)cc2)NC(=O)c2ccc(C(=O)O)cc2)cc1OC` (stereo not shown) [Example 1, 4-{[(1-(3,4-Dimethoxyphenyl)-3-{[4-({[(2-methylphenyl)amino]carbonyl}amino)phenyl]amino}-3-oxopropyl)amino]carbonyl}benzoic acid] returned a melting point of 166 °C. Further, the IC50 in data set [1] was below 1 µM.
For the compound `Cc1ccccc1NC(=O)Nc1ccc(CNC(=O)C2(CNC(=O)c3ccc(C(=O)O)cc3)CCCCC2)cc1` [Example 2, 4-[({[1-({[4-({[(2-methylphenyl)amino]carbonyl}-amino)benzyl]amino}carbonyl)cyclohexyl]methyl}-amino)carbonyl]benzoicacid], the IC50 in data set [1] is above 10 µM.
As to `COc1ccc(C(CC(=O)NCc2ccc(NC(=O)Nc3ccccc3C)cc2)NC(=O)c2ccc(C(=O)O)cc2)cc1OC` (stereo not shown) [Example 3, 4-{[(1-(3,4-dimethoxy-phenyl)-3-{[4-({[(2-methyl-phenyl)amino]carbonyl}amino)benzyl]amino}-3-oxopropyl)amino]carbonyl}benzoic acid], the melting point came out at 214 °C. This compound had an IC50 in data set [1] above 10 µM.
The like results for `COc1cccc(C(CC(=O)Nc2ccc(NC(=O)Nc3ccccc3C)cc2)NC(=O)c2ccc(C(=O)O)cc2)c1` (stereo not shown) [Example 4, 4-{[(1-(3-methoxy-phenyl)-3-{[4-({[(2-methylphenyl)-amino]carbonyl}amino)phenyl]amino}-3-oxopropyl)amino]carbonyl}benzoic acid] were, in that order, 275 to 280 °C and below 1 µM.
Regarding `COc1ccc(C(CC(=O)Nc2ccc(NC(=O)Nc3ccccc3C)cc2)NC(=O)c2ccc(C(=O)OC(C)(C)C)cc2)cc1OC` (stereo not shown) [Example VII, tert-Butyl-4-{[(1-(3,4-dimethoxyphenyl)-3-{[4-({[(2-methylphenyl)-amino]carbonyl}amino)phenyl]amino}-3-oxopropyl)amino]carbonyl}benzoate], the melting point is 210 to 215 °C.
As for `COc1ccc(C(CC(=O)NCc2ccc(NC(=O)Nc3ccccc3C)cc2)NC(=O)c2ccc(C(=O)OC(C)(C)C)cc2)cc1OC` (stereo not shown) [IX, tert-Butyl-4-{[(1-(3,4-dimethoxyphenyl)-3-{[4-({[(2-methylphenyl)amino]carbonyl}amino)benzyl]amino}-3-oxopropyl)amino]carbonyl}-benzoate], the melting point was in the range of 223 to 226 °C.
Same read-out and setting: in the case of `Cc1ccccc1NC(=O)Nc1ccc(CNC(=O)C2(CNC(=O)c3ccc(C(=O)OC(C)(C)C)cc3)CCCCC2)cc1` [VIII, tert-Butyl 4-[({[1-({[4-({[(2-methylphenyl)amino]carbonyl}amino)benzyl]amino}carbonyl)cyclohexyl]methyl}-amino)carbonyl]benzoate] it was 187 to 189 °C.
